Paper PMC5602100, “Retro analog concept: comparative study on physico-chemical and biological properties of selected antimicrobial peptides” (Amino Acids, 2017)
Where two headings read alike, the source gives them in different places. Ends that are not written are not given here.

Columns and labels:
E. faecalis PCM 2673 = settings: PCM 2673, 18 h
Procedure: (§1) The minimal inhibitory concentrations (MICs) for bacteria and fungi were determined by the broth microdilution method according to the Clinical and Laboratory Standards Institute (CLSI) protocol (Clinical and Laboratory Standards Institute (CLSI) [2002], [2012]). For this purpose, the initial inoculums of bacteria (5 × 10^5 CFU/mL) in Mueller–Hinton Broth (Biocorp, Warsaw, Poland) were exposed to the ranging concentrations of compounds (0.125–256 µg/mL) and incubated for 18 h at 37 °C. In case of fungi, the initial inoculums of 2 × 10^3 CFU/mL in RPMI-1640 (Sigma-Aldrich, Steinheim, Germany) were exposed to the ranging concentrations of compounds (0.5–256 µg/mL) and incubated for 24 h at 37 °C. The experiments were conducted on 96-well microtiter plates, with the final volume of 100 µL. Cell densities were adjusted spectrophotometrically (Multiskan™ GO Microplate Spectrophotometer, Thermo Scientific) at the wavelengths of 600 nm for bacteria and 530 nm for fungi. The MIC was taken as the lowest drug concentration at which a noticeable growth of microorganisms was inhibited. Reference strains of bacteria: Escherichia coli ATCC 25922, E. coli ATCC 23506, Enterococcus faecalis PCM 2673, Klebsiella pneumoniae ATCC 700603, Pseudomonas aeruginosa ATCC 9027, Staphylococcus aureus ATCC 25923, S. aureus 9144, Streptococcus pneumoniae ATCC 49619, and fungi: Aspergillus niger ATCC 16404, Candida albicans ATCC 10231, and C. glabrata ATCC 15126 were obtained from Polish Collection of Microorganisms (PCM, Polish Academy of Sciences, Wroclaw, Poland) and from American Type Culture Collection (ATCC). All experiments were conducted in triplicate.

E. coli ATCC 25922 = settings: ATCC 25922, 18 h
Procedure: as §1

E. coli ATCC 23506 = settings: ATCC 23506, 18 h
Procedure: as §1

C. glabrata ATCC 15126 = test system: C. glabrata ATCC 15126
Procedure: as §1

A. niger ATCC 16404 = test system: A. niger ATCC 16404
Procedure: as §1

S. aureus ATCC 25923 = settings: ATCC 25923, 18 h
Procedure: as §1

S. aureus ATCC 9144 = settings: ATCC 9144, 18 h
Procedure: as §1

[1] = test system: K. pneumoniae ATCC 700603
Procedure: as §1

C. albicans ATCC 10231 = test system: C. albicans ATCC 10231
Procedure: as §1

S. pneumoniae ATCC 49619 = settings: ATCC 49619, 18 h
Procedure: as §1

P. aeruginosa ATCC 9027 = settings: ATCC 9027, 18 h
Procedure: as §1

[2] = broth microdilution (CLSI), 2 × 10^3 CFU/mL in RPMI-1640, 0.5–256 µg/mL, 24 h at 37 °C, triplicate

## FSEAIKKIIDFLG-NH2 [r-aurein 1.2]
E. faecalis PCM 2673
  MIC, E. faecalis PCM 2673: 256 mg/L
E. coli ATCC 25922
  MIC, E. coli ATCC 25922: 256 mg/L
E. coli ATCC 23506
  MIC, E. coli ATCC 23506: 256 mg/L
C. glabrata ATCC 15126; ATCC 15126, 24 h
  MIC, C. glabrata ATCC 15126: >256 mg/L
A. niger ATCC 16404; ATCC 16404, 24 h
  MIC, A. niger ATCC 16404: >256 mg/L
S. aureus ATCC 25923
  MIC, S. aureus ATCC 25923: >256 mg/L
S. aureus ATCC 9144
  MIC, S. aureus ATCC 9144: >256 mg/L
[1]; ATCC 700603, 18 h
  MIC, K. pneumoniae ATCC 700603: 128 mg/L
C. albicans ATCC 10231; ATCC 10231, 24 h
  MIC, C. albicans ATCC 10231: >256 mg/L
S. pneumoniae ATCC 49619
  MIC, S. pneumoniae ATCC 49619: 256 mg/L
P. aeruginosa ATCC 9027
  MIC, P. aeruginosa ATCC 9027: >256 mg/L

## GLFDVIKKVASVIGGL-NH2 [citropin 1.1]
E. faecalis PCM 2673
  MIC, E. faecalis PCM 2673: 32 mg/L
E. coli ATCC 25922
  MIC, E. coli ATCC 25922: 32 mg/L
E. coli ATCC 23506
  MIC, E. coli ATCC 23506: 32 mg/L
C. glabrata ATCC 15126; ATCC 15126, 24 h
  MIC, C. glabrata ATCC 15126: 128 mg/L
A. niger ATCC 16404; ATCC 16404, 24 h
  MIC, A. niger ATCC 16404: 64 mg/L
S. aureus ATCC 25923
  MIC, S. aureus ATCC 25923: 16 mg/L
S. aureus ATCC 9144
  MIC, S. aureus ATCC 9144: 16 mg/L
[1]; ATCC 700603, 18 h
  MIC, K. pneumoniae ATCC 700603: 16 mg/L
C. albicans ATCC 10231; ATCC 10231, 24 h
  MIC, C. albicans ATCC 10231: 128 mg/L
S. pneumoniae ATCC 49619
  MIC, S. pneumoniae ATCC 49619: 32 mg/L
P. aeruginosa ATCC 9027
  MIC, P. aeruginosa ATCC 9027: 128 mg/L

## FLPLIGRVLSGIL-NH2 [temporin A]
E. faecalis PCM 2673
  MIC, E. faecalis PCM 2673: 64 mg/L
E. coli ATCC 25922
  MIC, E. coli ATCC 25922: 256 mg/L
E. coli ATCC 23506
  MIC, E. coli ATCC 23506: >256 mg/L
C. glabrata ATCC 15126; ATCC 15126, 24 h
  MIC, C. glabrata ATCC 15126: >256 mg/L
A. niger ATCC 16404; ATCC 16404, 24 h
  MIC, A. niger ATCC 16404: 256 mg/L
S. aureus ATCC 25923
  MIC, S. aureus ATCC 25923: 4 mg/L
S. aureus ATCC 9144
  MIC, S. aureus ATCC 9144: 8 mg/L
[1]; ATCC 700603, 18 h
  MIC, K. pneumoniae ATCC 700603: 128 mg/L
C. albicans ATCC 10231; ATCC 10231, 24 h
  MIC, C. albicans ATCC 10231: 256 mg/L
S. pneumoniae ATCC 49619
  MIC, S. pneumoniae ATCC 49619: >256 mg/L
P. aeruginosa ATCC 9027
  MIC, P. aeruginosa ATCC 9027: >256 mg/L

## LGGIVSAVKKIVDFLG-NH2 [r-citropin 1.1]
E. faecalis PCM 2673
  MIC, E. faecalis PCM 2673: 128 mg/L
E. coli ATCC 25922
  MIC, E. coli ATCC 25922: 64 mg/L
E. coli ATCC 23506
  MIC, E. coli ATCC 23506: 128 mg/L
C. glabrata ATCC 15126; ATCC 15126, 24 h
  MIC, C. glabrata ATCC 15126: 256 mg/L
A. niger ATCC 16404; ATCC 16404, 24 h
  MIC, A. niger ATCC 16404: 256 mg/L
S. aureus ATCC 25923
  MIC, S. aureus ATCC 25923: 64 mg/L
S. aureus ATCC 9144
  MIC, S. aureus ATCC 9144: 64 mg/L
[1]; ATCC 700603, 18 h
  MIC, K. pneumoniae ATCC 700603: 32 mg/L
C. albicans ATCC 10231; ATCC 10231, 24 h
  MIC, C. albicans ATCC 10231: 128 mg/L
S. pneumoniae ATCC 49619
  MIC, S. pneumoniae ATCC 49619: 128 mg/L

## ILRWPWWPWRRK-NH2 [omiganan]
E. faecalis PCM 2673
  MIC, E. faecalis PCM 2673: 16 mg/L
E. coli ATCC 25922
  MIC, E. coli ATCC 25922: 16 mg/L
E. coli ATCC 23506
  MIC, E. coli ATCC 23506: 32 mg/L
C. glabrata ATCC 15126; [2]
  MIC, C. glabrata ATCC 15126: 128 mg/L
A. niger ATCC 16404; [2]
  MIC, A. niger ATCC 16404: 64 mg/L
S. aureus ATCC 25923
  MIC, S. aureus ATCC 25923: 16 mg/L
S. aureus ATCC 9144
  MIC, S. aureus ATCC 9144: 16 mg/L
[1]; broth microdilution (CLSI), 5 × 10^5 CFU/mL in Mueller–Hinton Broth, 0.125–256 µg/mL, 18 h at 37 °C, triplicate
  MIC, K. pneumoniae ATCC 700603: 8 mg/L
C. albicans ATCC 10231; [2]
  MIC, C. albicans ATCC 10231: 128 mg/L
S. pneumoniae ATCC 49619
  MIC, S. pneumoniae ATCC 49619: 8 mg/L
P. aeruginosa ATCC 9027
  MIC, P. aeruginosa ATCC 9027: 16 mg/L
